Literature values, collected in patent US20090156634A1, “Tropane alkaloids and trigonelline combinations and methods for administering the same” (priority 2007, published 2009).
Where a name gives a salt, the structure may show the parent alone.

Key:
diaphragm = details: rats, low-dose
central nervous system = details: orally administered to rats
dendrites and axons = details: mice models of Alzheimer's disease
[1] = tested on: rat cultured sensory neurons; details: attributed to inhibition of potassium channels

| Structure (SMILES) | effect on diaphragm fatigue (diaphragm) | central nervous system effect (central nervous system) | effect on dendrites and axons (dendrites and axons) | excitability of the rat dorsal gangliae [1] |
| --- | --- | --- | --- | --- |
| NCCc1ccc(O)c(O)c1 [dopamine] | can prevent and/or reverse diaphragm fatigue | – | – | – |
| C[n+]1cccc(C(=O)[O-])c1 [trigonelline, 3-carboxy-1-methyl-pyridinum inner salt] | – | central nervous system stimulating effects | induce regenerative effects in dendrites and axons | increases the excitability |
